These results are taken from patent US20260258050A1, “IMMUNOMODULATOR” (HITGEN INC., priority 2023, published 2026).

Broadly, the IC50 is the concentration at which inhibition is half-maximal.

This experiment deals with T1, Human IL-17A (Homo sapiens, UniProt Q16552).
T1 sequence (Q16552 20-155 limits assumed): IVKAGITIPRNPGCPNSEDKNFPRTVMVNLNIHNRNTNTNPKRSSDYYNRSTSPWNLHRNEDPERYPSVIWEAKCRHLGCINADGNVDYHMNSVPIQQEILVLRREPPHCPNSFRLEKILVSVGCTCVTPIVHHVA
The experiment can be described thus: IL-17A enzyme-linked immunosorbent assay (competitive ELISA, IL-17A/IL-17Ra receptor-ligand binding). Also on record: purchased Sino Biological Inc. 12047-H07B. The note with it: human IL-17A coated plate, human IL-17Ra, read-out: IC50, inhibitory activity of compounds on human IL-17A. The procedure: Experimental Example 1 IL-17A Enzyme-Linked Immunosorbent Assay (ELISA)
The inhibitory effects of human IL-17A inhibitors on receptor-ligand binding were quantitatively determined by a competitive enzyme-linked immunosorbent assay (ELISA). The ELISA was performed through the following steps.
Human IL-17A (Sino Biological Inc., Cat #12047-H07B) was diluted with coating buffer (50 mM phosphate-buffered saline (PBS), pH 7.4) to give an IL-17A concentration of 0.2 μg/ml. 100 μL of the resulting solution was added to each well of a 96-well plate, and the plate was incubated at 37° C. for 30 min. In a blank group, 100 100 μL of the coating buffer was added instead of the IL-17A solution.
The plate was washed four times with 10 mM phosphate-buffered saline containing 0.05% Tween-20 (PBST, pH 7.4). 200 μL of PBST was used per well for each wash. After the final wash, the plate was tapped dry on absorbent paper.
Fresh 5% (w/v) skim milk solution was prepared before the experiment. For example, 5 g of skim milk powder (Bio-Rad, 170-6404) was completely dissolved in 100 mL of 10 mM PBST. 200 μL of the 5% (w/v) skim milk solution was added to each well, and the plate was incubated on a shaker at 25° C. for 30 min.
(S4) Preparation of 100× to-be-Tested Compound Solutions
During step (S3), the to-be-tested compound solutions were prepared, respectively. Each powdered compound was dissolved in dimethyl sulfoxide (DMSO) to reach a storage concentration of 10 mM. The to-be-tested compound solutions were then serially diluted four-fold with DMSO to obtain nine storage concentrations ranging from […].
(S6) Pre-incubation of IL-17A with to-be-tested compound solutions
89 μL of PBST and 1 μL of each of the to-be-tested compound solutions were added to each well and mixed. The plate was pre-incubated at 25° C. for 10 min. In the blank group and the control group, 1 μL of DMSO was added instead of the to-be-tested compound solutions.
(S7) Incubation with Human Interleukin-17 Receptor a (IL-17Ra)
10 μL of 16 nM human IL-17Ra (Sino Biological Inc., Cat #10895-H03H) was added, followed by incubation on a shaker at 25° C. for 30 min. The receptor solution was prepared in 10 mM PBST.
(S9) Incubation with Horseradish Peroxidase-Conjugated Antibody
100 μL of mouse anti-Fc tag horseradish peroxidase (HRP)-conjugated antibody (Sino Biological Inc., Cat #10702-MM01T-H) was added to each well. The plate was incubated on a shaker at 25° C. for 30 min. The antibody was diluted with 5% (w/v) skim milk solution at 1:5,000 (v/v).
100 μL of 3,3′,5,5′-tetramethylbenzidine (TMB) substrate solution (BD, Cat #555214) was added to each well. Substrate A and substrate B were freshly mixed at a volume ratio of 1:1 before use. The plate was incubated in the dark at 25° C. for 5-15 min.
(S12) Termination and Detection
The color reaction was terminated by addition of 2.5 M hydrochloric acid (HCl). Absorbance was measured at 450 nm using a BMG PHERStar microplate reader.
(S13) Calculation of Half-Maximal Inhibitory Concentration (IC50)
The relative percent residual activity at each compound concentration was calculated according to Equation 1. The IC50 value of each test compound was then calculated in GraphPad 6 using the equation for log(inhibitor) versus normalized response with variable slope, as shown in Equation 2.
relative percent residual activity (%)=[(absorbance of sample−absorbance of blank group)/(absorbance of control group−absorbance of blank group)]%. Equation 1: […]
The compounds prepared in the above examples were tested for IL-17A inhibitory activity according to the above method.
With `Cc1[nH]nc2c1-c1cnc(NC(=O)[C@@H](NC(=O)c3ccnn3C(C)C)C(C3CC3)C3CC3)cc1CN(C1(C(F)(F)F)CC1)C(=O)C2` [compound 208], the 50% inhibitory concentration (IC50) was at most 50 nM.

As to `Cc1[nH]nc2c1-c1cc(F)c(NC(=O)C(NC(=O)c3ccnn3C(C)C)C3CCC(F)(F)CC3)cc1COCC2` (single isomer, unassigned) [compound 38a], the IC50 is at most 50 nM.

On to `CCn1nccc1C(=O)NC(C(=O)Nc1cc2c(cc1F)-c1c(n[nH]c1C)CCOC2)C1CCC(F)(F)CC1` (single isomer, unassigned) [compound 37a], for which the half-maximal inhibitory concentration (IC50) is at most 50 nM.

For the compound `Cc1[nH]nc2c1-c1cc(F)c(NC(=O)[C@@H](NC(=O)c3ccnn3[C@H]3CCOC3)C(C3CC3)C3CC3)cc1COCC2` [compound 73], the IC50 is 50 to 150 nM.

With `Cc1[nH]nc2c1-c1cnc(NC(=O)[C@@H](NC(=O)/C(F)=C\C(C)C)C(C3CC3)C3CC3)cc1CN(C1CC1)CC2` [compound 222], the IC50 is at most 50 nM.

As for `Cc1[nH]nc2c1-c1cc(F)c(NC(=O)[C@@H](NC(=O)c3ccnn3C3CCOCC3)C(C3CC3)C3CC3)cc1COCC2` [compound 74], the IC50 was in the range of 50 to 150 nM.

For the compound `CCc1nonc1C(=O)N[C@H](C(=O)Nc1ccc2c(c1)COCCc1n[nH]c(C)c1-2)C(C1CC1)C1CC1` [compound 5], the IC50 is at most 50 nM.

For `Cc1[nH]nc2c1-c1cc(F)c(NC(=O)[C@@H](NC(=O)c3ccnn3C(C)C)C(C3CC3)C3CC3)cc1CN(C1CCC1)CC2` [compound 177], the IC50 was at most 50 nM.

Consider `Cc1[nH]nc2c1-c1cc(F)c(NC(=O)[C@@H](NC(=O)/C(F)=C\C(C)C)C(C3CC3)C3CC3)cc1CN(C(C)C(F)(F)F)C(=O)C2` (mixture of isomers) [compound 250], for which the IC50 was at most 50 nM.

Consider `Cc1[nH]nc2c1-c1cc(F)c(NC(=O)[C@@H](NC(=O)c3ccnn3C(C)C)C(C3CC3)C3CC3)cc1CN(C(C)(C)C(F)(F)F)CC2` [compound 211], for which the half-inhibitory concentration (IC50) was at most 50 nM.

For `Cc1[nH]nc2c1-c1cc(F)c(NC(=O)[C@@H](NC(=O)c3ccnn3C(C)C)C(C3CC3)C3CC3)cc1C/C=C\C2` [compound 129], the IC50 is at most 50 nM.

For the compound `Cc1[nH]nc2c1-c1cc(F)c(NC(=O)[C@@H](NC(=O)c3ccnc(CC(F)(F)F)c3)C(C3CC3)C3CC3)cc1COCC2` [compound 109], the IC50 lay within 50 to 150 nM.

On to `CO[C@@H](C)Cn1nccc1C(=O)N[C@H](C(=O)Nc1cc2c(cc1F)-c1c(n[nH]c1C)CCOC2)C(C1CC1)C1CC1` [compound 78], for which the half-inhibitory concentration (IC50) is at most 50 nM.

Consider `Cc1[nH]nc2c1-c1cnc(NC(=O)[C@@H](NC(=O)c3ccnn3C(C)C)C(C3CC3)C3CC3)cc1CN(C(C)C(F)(F)F)CC2` (mixture of isomers) [compound 205], for which the half-maximal inhibitory concentration (IC50) was at most 50 nM.

Consider `CCn1nccc1C(=O)N[C@H](C(=O)Nc1cc2c(cc1Cl)-c1c[nH]nc1CCOC2)C(C1CC1)C1CC1` [compound 30], for which the IC50 was in the range of 50 to 150 nM.

In the case of `Cc1nonc1C(=O)N[C@H](C(=O)Nc1cc2c(cc1F)-c1c(n[nH]c1C)CCOC2)C(C1CC1)C1CC1` [compound 20], the IC50 is at most 50 nM.

Turning to `Cc1[nH]nc2c1-c1cc(F)c(NC(=O)[C@@H](NC(=O)c3ccnn3C(C)C[S+](C)[O-])C(C3CC3)C3CC3)cc1COCC2` (single isomer, unassigned) [compound 43a], the IC50 was 50 to 150 nM.

With `Cc1[nH]nc2c1-c1cc(F)c(NC(=O)[C@@H](NC(=O)C3(F)CC3)C(C3CC3)C3CC3)cc1COCC2` [compound 122], the IC50 is 50 to 150 nM.

On to `Cc1[nH]nc2c1-c1cc(F)c(NC(=O)[C@@H](NC(=O)/C(F)=C\C3CC3)C(C3CC3)C3CC3)cc1CN(C(C)C(F)(F)F)C(=O)C2` (mixture of isomers) [compound 251], for which the concentration for half-maximal inhibition (IC50) is at most 50 nM.

For `Cc1[nH]nc2c1-c1cc(F)c(NC(=O)[C@@H](NC(=O)c3ccnn3CCCN(C)C)C(C3CC3)C3CC3)cc1COCC2` [compound 85], the IC50 is 50 to 150 nM.

With `C=C(F)C(=O)N[C@H](C(=O)Nc1cc2c(cn1)-c1c(n[nH]c1C)CC(=O)N(C(C)C(F)(F)F)C2)C(C1CC1)C1CC1` (mixture of isomers) [compound 257], the concentration for half-maximal inhibition (IC50) is at most 50 nM.

In the case of `COC(=O)N[C@H](C(=O)Nc1cc2c(cc1F)-c1c(n[nH]c1C)CCOC2)C(C1CC1)C1CC1` [compound 121], the half-inhibitory concentration (IC50) lay within 50 to 150 nM.

For the compound `COCCN1Cc2cc(NC(=O)[C@@H](NC(=O)c3ccnn3[C@@H](C)CO)C(C3CC3)C3CC3)c(F)cc2-c2c(n[nH]c2C)CC1=O` [compound 140], the concentration for half-maximal inhibition (IC50) was at most 50 nM.

With `Cc1[nH]nc2c1-c1cnc(NC(=O)[C@@H](NC(=O)c3ccnn3CCCF)C(C3CC3)C3CC3)cc1CN(C(C)C(F)(F)F)C(=O)C2` (mixture of isomers) [compound 226], the half-inhibitory concentration (IC50) was at most 50 nM.

As to `Cc1[nH]nc2c1-c1cnc(NC(=O)[C@@H](NC(=O)/C(F)=C\C3CC3)C(C3CC3)C3CC3)cc1CN(C(C)C(F)(F)F)C(=O)C2` (mixture of isomers) [compound 255], the IC50 is at most 50 nM.

Consider `Cc1[nH]nc2c1-c1cc(F)c(NC(=O)[C@@H](NC(=O)c3ccnn3C(C)C[S+](C)[O-])C(C3CC3)C3CC3)cc1COCC2` (single isomer, unassigned) [compound 43b], for which the half-inhibitory concentration (IC50) fell in the range of 50 to 150 nM.

Consider `Cc1[nH]nc2c1-c1cnc(NC(=O)[C@@H](NC(=O)c3ccnn3C(C)C)C(C3CC3)C3CC3)cc1CN(C(C)(C)C(F)(F)F)C(=O)C2` [compound 206], for which the IC50 is at most 50 nM.

On to `Cc1[nH]nc2c1-c1cnc(NC(=O)[C@@H](NC(=O)c3cnnn3C(C)C)C(C3CC3)C3CC3)cc1CN(C1CC1)CC2` [compound 220], for which the half-inhibitory concentration (IC50) was at most 50 nM.

With `CCn1nccc1C(=O)N[C@H](C(=O)Nc1cc2c(cc1F)-c1c(n[nH]c1C)CCN(C)C2)C(C1CC1)C1CC1` [compound 155], the 50% inhibitory concentration (IC50) lay in the range of 50 to 150 nM.

With `Cc1[nH]nc2c1-c1cnc(NC(=O)[C@@H](NC(=O)c3ccnn3C(C)C)C(C3CC3)C3CC3)c(F)c1COCC2` [compound 128], the half-maximal inhibitory concentration (IC50) is at most 50 nM.

For `Cc1[nH]nc2c1-c1cc(F)c(NC(=O)[C@@H](NC(=O)c3ccnn3CCCN3CCN(C)CC3)C(C3CC3)C3CC3)cc1COCC2` [compound 93], the IC50 fell in the range of 50 to 150 nM.

Regarding `CC(C)=C(F)C(=O)N[C@H](C(=O)Nc1cc2c(cc1F)-c1c(n[nH]c1C)CC(=O)N(C(C)C(F)(F)F)C2)C(C1CC1)C1CC1` (mixture of isomers) [compound 252], the IC50 was at most 50 nM.

On to `Cc1[nH]nc2c1-c1cc(F)c(NC(=O)[C@@H](NC(=O)c3ccnn3C(C)C)C(C3CC3)C3CC3)cc1CN(CC#N)CC2` [compound 179], for which the IC50 was at most 50 nM.

Regarding `Cc1[nH]nc2c1-c1cc(F)c(NC(=O)[C@@H](NC(=O)c3ccnn3CCS(C)(=O)=O)C(C3CC3)C3CC3)cc1COCC2` [compound 63], the IC50 is at most 50 nM.
